Experimental data published in patent US20110028447A1, “INDAZOLE DERIVATIVES” (Pfizer Inc., priority 2008, published 2011).
Read-outs that look alike come from different tables or passages of the source.

Key:
human CB1 receptor [1] = biological target: T1, human CB1 receptor (Homo sapiens, UniProt P21554); experiment: Human CB1 receptor binding, [3H] CP-55,940 displacement on HEK cell membranes; design: expressed in transfected cells; host or cells: HEK cells, doxycycline-induced; membrane preparation
T1 sequence (P21554 whole entry): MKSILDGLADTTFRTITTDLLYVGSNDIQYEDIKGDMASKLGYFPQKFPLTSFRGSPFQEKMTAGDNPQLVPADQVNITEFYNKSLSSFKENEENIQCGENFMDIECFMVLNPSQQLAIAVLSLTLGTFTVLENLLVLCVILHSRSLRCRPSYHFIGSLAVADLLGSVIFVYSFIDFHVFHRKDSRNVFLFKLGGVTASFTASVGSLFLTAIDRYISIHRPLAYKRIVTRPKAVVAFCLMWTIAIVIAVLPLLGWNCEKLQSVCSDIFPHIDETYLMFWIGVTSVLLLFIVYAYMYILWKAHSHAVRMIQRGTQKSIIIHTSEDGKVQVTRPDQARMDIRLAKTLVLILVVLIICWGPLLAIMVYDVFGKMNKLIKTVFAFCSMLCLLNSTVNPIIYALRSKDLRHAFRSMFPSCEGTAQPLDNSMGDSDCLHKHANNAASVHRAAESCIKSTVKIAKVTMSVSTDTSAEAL
Summary of the method: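 Radioligand displacement: [3H] CP-55,940 at […] final, 1 μg membrane protein per well from HEK cells with tetracycline-inducible human CB1, 60 min at room temperature, pH 7.4 Tris/NaCl/MgCl2/EGTA/BSA buffer. 50 μM WIN-55,212-2 set nonspecific binding; bound label filtered, counted, and fitted for EC50 and Ki values.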

human CB1 receptor [2] = biological target: T1, human CB1 receptor; experiment: [35S] GTPγS binding on membranes of CHO cells expressing the human CB1 receptor (agonism); format: biochemical; design: expressed in transfected cells; membrane preparation
Summary of the method: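 Membranes from human CB1-expressing CHO cells (5 μg/well) incubated with test compound and [35S]GTPγS in 50 mM Tris pH 7.4, 100 mM NaCl, 3 mM MgCl2, 0.2 mM EGTA, 0.04% BSA for 45 min at 37 °C. Bound label collected by filtration, scintillation counted; EC50 from curve fits.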

[3] = GTPγS EC50, human CB1, CHO cell membranes
[4] = human CB1, CHO cell membranes, read-out: GTPγS EC50

| Compound | Ki (human CB1 receptor [1]; CB1 Ki) | EC50 (human CB1 receptor [2]; [3]) | Ki (human CB1 receptor [1]; read-out: CB1 Ki) | EC50 (human CB1 receptor [2]; [4]) |
| --- | --- | --- | --- | --- |
| CC(C)(C)[C@H](NC(=O)c1nn(Cc2ccc(C#N)cc2)c2cc(F)ccc12)C(N)=O [Example 300] | 5.85 nM | 121 nM |  |  |
| CC(C)NC(=O)OC1CCN(C(=O)[C@@H](NC(=O)c2nn(Cc3ccc(F)cc3)c3ccccc23)C(C)(C)C)CC1 [Example 302] |  |  | 5.41 nM | 33.1 nM |
| CCNC(=O)OC1CCN(C(=O)[C@@H](NC(=O)c2nn(Cc3ccc(F)cc3)c3ccccc23)C(C)(C)C)CC1 [Example 303] |  |  | 2.27 nM | 11 nM |
| CC(C)(C)[C@H](NC(=O)c1nn(Cc2ccc(F)cc2)c2ccccc12)C(=O)NCC1=NCCN1 [Example 305] | 18 nM | 86.4 nM |  |  |
| CC(C)(C)[C@H](NC(=O)c1nn(Cc2ccc(F)cc2)c2ccccc12)C(=O)N1CCC[C@H]1CO [Example 306] | 0.78 nM | 1.39 nM |  |  |
| CC(C)(C)[C@H](NC(=O)c1nn(Cc2ccc(F)cc2)c2ccccc12)C(=O)N1CCC[C@@H]1CO [Example 307] | 1.27 nM | 1.56 nM |  |  |
| CC(C)(C)[C@H](NC(=O)c1nn(Cc2ccc(C#N)cc2)c2ccccc12)C(=O)NCC(F)(F)F [Example 308] | 2.63 nM | 5.55 nM |  |  |
| CC(C)(C)[C@H](NC(=O)c1nn(Cc2ccc(C#N)cc2)c2c(F)cccc12)C(=O)NCC(F)(F)F [Example 309] | 1.59 nM | 2.59 nM |  |  |
| CC(C)(C)[C@H](NC(=O)c1nn(Cc2ccc(C#N)cc2)c2cc(F)ccc12)C(=O)NCC(F)(F)F [Example 310] | 1.48 nM | 2.1 nM |  |  |
| CC(C)(C)[C@H](NC(=O)c1nn(Cc2ccc(F)cc2)c2ccccc12)C(=O)NCC1CNC(=O)O1 (stereo partly drawn) [Example 315] | 2.91 nM | 8.67 nM |  |  |
| CC(=O)N1CCC(NC(=O)[C@@H](NC(=O)c2nn(Cc3ccc(F)cc3)c3ccccc23)C(C)(C)C)C1 (stereo partly drawn) [Example 320] |  |  | 12 nM | 63.2 nM |
| CC(C)(C)[C@H](NC(=O)c1nn(Cc2ccc(F)cc2)c2c(F)c(F)ccc12)C(=O)NCC(N)=O [Example 321] | 1.58 nM | 16.6 nM |  |  |
| CC(C)(C)[C@H](NC(=O)c1nn(Cc2ccc(F)cc2)c2c(F)c(F)ccc12)C(=O)NC[C@@H](O)CO [Example 322] | 8.89 nM | 109 nM |  |  |
| CC(C)(C)[C@H](NC(=O)c1nn(Cc2ccc(F)cc2)c2c(F)c(F)ccc12)C(=O)NC[C@H](O)CO [Example 323] | 2.99 nM | 22.5 nM |  |  |
| CC(C)(C)[C@H](NC(=O)c1nn(Cc2ccc(F)cc2)c2c(F)c(F)ccc12)C(=O)NCCO [Example 324] | 0.15 nM | 2.6 nM |  |  |
| CC(C)(C)[C@H](NC(=O)c1nn(Cc2ccc(F)cc2)c2c(F)c(F)ccc12)C(=O)NC(CO)CO [Example 325] | 1.97 nM | 5.33 nM |  |  |
| CC(C)(C)[C@H](NC(=O)c1nn(Cc2ccc(F)cc2)c2c(F)c(F)ccc12)C(=O)NCCS(C)(=O)=O [Example 326] | 15.8 nM | 53.2 nM |  |  |
| CC(C)(C)[C@H](NC(=O)c1nn(Cc2ccc(F)cc2)c2c(F)c(F)ccc12)C(=O)NCCS(N)(=O)=O [Example 327] | 4.19 nM | 18.1 nM |  |  |
| CC(C)(C)[C@H](NC(=O)c1nn(Cc2ccc(F)cc2)c2c(F)c(F)ccc12)C(=O)NCc1nnc(C(N)=O)o1 [Example 328] |  |  | 0.71 nM | 1.7 nM |
| Cc1nnc(CNC(=O)[C@@H](NC(=O)c2nn(Cc3ccc(F)cc3)c3c(F)c(F)ccc23)C(C)(C)C)o1 [Example 329] | 2.93 nM | 8 nM |  |  |
| CC(C)(C)[C@H](NC(=O)c1nn(Cc2ccc(F)cc2)c2ccccc12)C(=O)N1CC(F)(F)C1 [Example 330] | 0.2 nM | 0.41 nM |  |  |
| CC(C)(C)[C@H](NC(=O)c1nn(Cc2ccc(F)cc2)c2ccccc12)C(=O)N1CCC(F)(F)C1 [Example 331] | 2.2 nM | 9.9 nM |  |  |
| CC(C)(C)[C@H](NC(=O)c1nn(Cc2ccc(F)cc2)c2ccccc12)C(=O)N1CCC(F)(F)CC1 [Example 332] | 15 nM | 27.3 nM |  |  |
| CC(C)(C)[C@H](NC(=O)c1nn(Cc2ccc(F)cc2)c2ccccc12)C(=O)N1CCCC(F)(F)C1 [Example 333] | 1.49 nM | 3.75 nM |  |  |
| CC(C)(C)[C@H](NC(=O)c1nn(Cc2ccc(F)cc2)c2ccccc12)C(=O)N1CCC(F)C1 (stereo partly drawn) [Example 334] | 1.72 nM | 9.41 nM |  |  |
| CC(C)(C)[C@H](NC(=O)c1nn(Cc2ccc(F)cc2)c2ccccc12)C(=O)N1CCC(C#N)CC1 [Example 335] | 3.21 nM | 14.9 nM |  |  |
| CC(C)(C)[C@H](NC(=O)c1nn(Cc2ccc(F)cc2)c2ccccc12)C(=O)N1CC(F)C1 [Example 336] | 0.11 nM | 0.52 nM |  |  |

| Compound | Ki (human CB1 receptor [1]; CB1 Ki) | EC50 (human CB1 receptor [2]; [3]) | Ki (human CB1 receptor [1]; read-out: CB1 Ki) | EC50 (human CB1 receptor [2]; [4]) |
| --- | --- | --- | --- | --- |
| CC(C)(C)[C@H](NC(=O)c1nn(Cc2ccc(F)cc2)c2ccccc12)C(=O)N1CCC(F)(CO)CC1 [Example 337] |  |  | 3.48 nM | 21.1 nM |
| CC(C)(O)C1CCN(C(=O)[C@@H](NC(=O)c2nn(Cc3ccc(F)cc3)c3ccccc23)C(C)(C)C)CC1 [Example 338] |  |  | 3.43 nM | 24.9 nM |
| CC(C)(C)[C@H](NC(=O)c1nn(Cc2ccc(F)cc2)c2ccccc12)C(=O)NC1CCCOC1 (stereo partly drawn) [Example 339] | 5.36 nM | 21.6 nM |  |  |
| CC(C)(C)[C@H](NC(=O)c1nn(Cc2ccc(F)cc2)c2ccccc12)C(=O)N1CCC(F)CC1 [Example 341] | 3.74 nM | 13.9 nM |  |  |
| CC(C)(C)[C@H](NC(=O)c1nn(Cc2ccc(F)cc2)c2ccccc12)C(=O)N1CC[C@H]1C(N)=O [Example 344] | 10.1 nM | 60.2 nM |  |  |
| CC(C)(C)[C@H](NC(=O)c1nn(Cc2ccc(F)cc2)c2ccccc12)C(=O)N1CC(CNS(=O)(=O)C2CC2)C1 [Example 345] |  |  | 0.61 nM | 1.69 nM |
| CC(C)(C)[C@H](NC(=O)c1nn(Cc2ccc(F)cc2)c2ccccc12)C(=O)N1CC(CNC(N)=O)C1 [Example 346] |  |  | 5.14 nM | 12.1 nM |
| CC(C)(C)[C@H](NC(=O)c1nn(Cc2ccc(F)cc2)c2c(F)cccc12)C(=O)NCCS(N)(=O)=O [Example 348] | 7.83 nM | 19.7 nM |  |  |
| CC(C)(C)[C@H](NC(=O)c1nn(Cc2ccc(C#N)cc2)c2c(F)cccc12)C(=O)N1CC(C(N)=O)C1 [Example 352] | 4.14 nM | 49.5 nM |  |  |
| CC(C)(C)[C@H](NC(=O)c1nn(Cc2ccc(C#N)cc2)c2ccccc12)C(=O)N[C@H]1C[C@H](O)C1 [Example 354] | 11.7 nM | > 500 nM |  |  |
| CC(C)(C)[C@H](NC(=O)c1nn(Cc2ccc(F)cc2)c2ccccc12)C(=O)NCCS(=O)(=O)N1CCOCC1 [Example 357] |  |  | 2.93 nM | 48.6 nM |
| CC(C)(C)[C@H](NC(=O)c1nn(Cc2ccc(C#N)cc2F)c2c(F)c(F)ccc12)C(N)=O [Example 358] | 4.89 nM | 7.46 nM |  |  |
| CC(C)(C)[C@H](NC(=O)c1nn(Cc2ccc(C#N)cc2F)c2c(F)c(F)ccc12)C(=O)NCc1nnc(C(N)=O)o1 [Example 365] |  |  | 11.9 nM | 34.8 nM |
| CC(C)(C)[C@H](NC(=O)c1nn(Cc2ccc(C#N)cc2F)c2c(F)cccc12)C(N)=O [Example 368] | 2 nM | 4.55 nM |  |  |
| CC(C)(C)[C@H](NC(=O)c1nn(Cc2ccc(C#N)cc2F)c2c(F)cccc12)C(=O)NC1CC1 [Example 373] | 14.6 nM | 11.6 nM |  |  |
| CC(C)(C)[C@H](NC(=O)c1nn(Cc2ccc(C#N)cc2F)c2c(F)c(F)ccc12)C(=O)NC1CC1 [Example 374] | 7.33 nM | 12.5 nM |  |  |
| CC(C)(C)[C@H](NC(=O)c1nn(Cc2ccc(C#N)cc2F)c2c(F)cccc12)C(=O)NCc1nnc(C(N)=O)o1 [Example 375] |  |  | 7.92 nM | 31.4 nM |
| CC(C)(C)[C@H](NC(=O)c1nn(Cc2ccc(F)cc2)c2ccccc12)C(=O)NCC(=O)NCCO [Example 376] | 1.52 nM | 4.4 nM |  |  |
| CCOC(=O)[C@H]1C[C@@H](NC(=O)[C@@H](NC(=O)c2nn(Cc3ccc(F)cc3)c3ccccc23)C(C)(C)C)C1 [Example 381] |  |  | 15.3 nM | 26.9 nM |
| CC(C)NS(=O)(=O)CCNC(=O)[C@@H](NC(=O)c1nn(Cc2ccc(F)cc2)c2ccccc12)C(C)(C)C [Example 395] |  |  | 41.2 nM | 30.8 nM |
| CC(C)(C)[C@H](NC(=O)c1nn(Cc2ccc(F)cc2)c2ccccc12)C(=O)N[C@H]1C[C@@H](C(N)=O)C1 [Example 398] | 5.8 nM | 26.6 nM |  |  |
| CC(C)(C)[C@H](NC(=O)c1nn(Cc2ccc(F)cc2)c2ccccc12)C(=O)NCCS(=O)(=O)NCC1CC1 [Example 400] |  |  | 12.3 nM | 28.1 nM |
| CC(C)(C)[C@H](NC(=O)c1nn(Cc2ccc(F)cc2)c2ccccc12)C(=O)NCC1CCC(=O)N1 (stereo partly drawn) [Example 404] | 13.1 nM | 38.2 nM |  |  |
| CN1CC(CNC(=O)[C@@H](NC(=O)c2nn(Cc3ccc(F)cc3)c3ccccc23)C(C)(C)C)CC1=O (stereo partly drawn) [Example 411] |  |  | 3.73 nM | 21.3 nM |
| CC(C)(C)[C@H](NC(=O)c1nn(Cc2ccc(F)cc2)c2ccccc12)C(=O)NCc1n[nH]c(C2CC2)n1 [Example 413] |  |  | 14 nM | 52 nM |
| CC(C)(C)[C@H](NC(=O)c1nn(Cc2ccc(F)cc2)c2ccccc12)C(=O)NCc1n[nH]c(-c2ccccc2)n1 [Example 414] |  |  | 7.61 nM | 38.6 nM |
| CC(C)(C)[C@H](NC(=O)c1nn(Cc2ccc(F)cc2)c2ccccc12)C(=O)NCc1nc2n(n1)CCC2 [Example 415] |  |  | 8.69 nM | 10.8 nM |
